According to ChEMBL document CHEMBL3991601, “The target landscape of clinical kinase drugs” (Science, 2017):
Active and inactive are the calls of the source. For most assays here, no stated cut-off is given here; in the data, actives have a measured Kd and inactives only a lower limit.

Key:
[1] = biological target: Receptor-interacting serine/threonine-protein kinase 2 (Homo sapiens, UniProt O43353)
[2] = biological target: DnaJ homolog subfamily A member 1 (Homo sapiens, UniProt P31689)
[3] = biological target: T1, Serine/threonine-protein kinase Nek3 (Homo sapiens, UniProt P51956)
T1 sequence (P51956 whole entry): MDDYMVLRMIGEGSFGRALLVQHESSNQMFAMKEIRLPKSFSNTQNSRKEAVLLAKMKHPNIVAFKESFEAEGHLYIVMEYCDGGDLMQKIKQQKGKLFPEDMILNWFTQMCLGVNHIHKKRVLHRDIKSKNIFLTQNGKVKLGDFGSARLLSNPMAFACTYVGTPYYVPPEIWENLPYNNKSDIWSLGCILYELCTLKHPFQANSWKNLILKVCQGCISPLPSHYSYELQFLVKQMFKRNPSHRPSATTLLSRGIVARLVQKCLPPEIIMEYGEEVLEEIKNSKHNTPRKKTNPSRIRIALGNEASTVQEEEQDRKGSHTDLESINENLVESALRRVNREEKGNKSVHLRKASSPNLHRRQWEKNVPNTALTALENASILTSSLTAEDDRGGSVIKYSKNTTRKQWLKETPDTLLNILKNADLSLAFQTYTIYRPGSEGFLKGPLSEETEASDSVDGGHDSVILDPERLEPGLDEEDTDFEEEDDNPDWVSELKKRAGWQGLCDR

[4] = biological target: Mitogen-activated protein kinase 10 (Homo sapiens, UniProt P53779)
ADP/ATP translocase 2 = biological target: T2, ADP/ATP translocase 2 (Homo sapiens, UniProt P05141)
T2 sequence (P05141 whole entry): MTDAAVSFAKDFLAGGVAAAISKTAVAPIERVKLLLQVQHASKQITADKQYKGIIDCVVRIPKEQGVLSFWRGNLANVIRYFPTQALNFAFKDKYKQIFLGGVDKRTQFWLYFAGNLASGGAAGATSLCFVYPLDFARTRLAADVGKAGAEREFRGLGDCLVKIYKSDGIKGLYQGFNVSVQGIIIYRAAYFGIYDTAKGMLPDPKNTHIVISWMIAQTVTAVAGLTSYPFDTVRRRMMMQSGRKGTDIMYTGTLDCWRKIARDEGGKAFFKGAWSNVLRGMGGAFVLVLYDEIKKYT

[5] = biological target: T3, MAP/microtubule affinity-regulating kinase 4 (Homo sapiens, UniProt Q96L34)
T3 sequence (Q96L34 whole entry): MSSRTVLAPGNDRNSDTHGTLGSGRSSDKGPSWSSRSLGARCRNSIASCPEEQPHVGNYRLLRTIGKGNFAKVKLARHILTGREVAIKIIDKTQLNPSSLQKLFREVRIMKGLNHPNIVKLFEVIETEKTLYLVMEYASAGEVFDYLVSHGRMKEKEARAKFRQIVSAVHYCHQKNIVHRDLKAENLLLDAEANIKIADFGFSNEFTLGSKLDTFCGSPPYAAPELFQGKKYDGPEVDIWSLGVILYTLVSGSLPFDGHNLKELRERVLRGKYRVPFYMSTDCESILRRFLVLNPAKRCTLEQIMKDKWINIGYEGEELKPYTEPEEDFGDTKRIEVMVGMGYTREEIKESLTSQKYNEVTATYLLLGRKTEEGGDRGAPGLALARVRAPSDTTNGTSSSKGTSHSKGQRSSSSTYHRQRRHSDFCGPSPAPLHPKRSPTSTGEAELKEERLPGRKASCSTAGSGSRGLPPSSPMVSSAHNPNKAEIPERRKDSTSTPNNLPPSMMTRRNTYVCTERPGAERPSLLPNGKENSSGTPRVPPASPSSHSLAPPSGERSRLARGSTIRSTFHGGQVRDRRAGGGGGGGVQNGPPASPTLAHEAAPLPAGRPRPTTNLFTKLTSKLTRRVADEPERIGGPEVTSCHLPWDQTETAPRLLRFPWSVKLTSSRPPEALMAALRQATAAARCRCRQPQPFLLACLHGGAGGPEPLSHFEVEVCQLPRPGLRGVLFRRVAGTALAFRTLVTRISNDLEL

[6] = biological target: T4, Discoidin domain-containing receptor 2 (Homo sapiens, UniProt Q16832)
T4 sequence (Q16832 whole entry): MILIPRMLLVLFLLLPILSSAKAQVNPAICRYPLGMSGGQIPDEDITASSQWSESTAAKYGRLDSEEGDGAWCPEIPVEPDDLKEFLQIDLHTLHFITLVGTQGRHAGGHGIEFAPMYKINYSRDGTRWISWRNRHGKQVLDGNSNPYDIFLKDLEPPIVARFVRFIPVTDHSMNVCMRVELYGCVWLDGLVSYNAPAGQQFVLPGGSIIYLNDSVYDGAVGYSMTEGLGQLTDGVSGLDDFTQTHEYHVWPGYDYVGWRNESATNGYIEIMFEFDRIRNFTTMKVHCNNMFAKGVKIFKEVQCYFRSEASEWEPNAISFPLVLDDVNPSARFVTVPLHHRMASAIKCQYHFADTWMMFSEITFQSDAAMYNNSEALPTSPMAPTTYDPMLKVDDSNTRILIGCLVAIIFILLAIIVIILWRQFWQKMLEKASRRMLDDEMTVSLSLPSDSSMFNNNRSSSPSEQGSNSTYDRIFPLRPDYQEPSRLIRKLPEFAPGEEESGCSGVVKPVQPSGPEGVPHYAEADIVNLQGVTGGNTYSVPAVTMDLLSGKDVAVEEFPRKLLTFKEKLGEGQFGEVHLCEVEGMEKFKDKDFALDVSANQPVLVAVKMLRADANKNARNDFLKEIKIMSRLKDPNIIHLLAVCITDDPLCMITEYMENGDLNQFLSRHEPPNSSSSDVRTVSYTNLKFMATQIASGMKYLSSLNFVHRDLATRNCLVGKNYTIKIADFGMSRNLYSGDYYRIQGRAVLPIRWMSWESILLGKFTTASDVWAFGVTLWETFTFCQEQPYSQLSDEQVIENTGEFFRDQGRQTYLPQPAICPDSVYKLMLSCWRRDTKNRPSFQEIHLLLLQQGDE

[7] = biological target: Mitogen-activated protein kinase 8 (Homo sapiens, UniProt P45983)
[8] = biological target: Tyrosine-protein kinase Fyn (Homo sapiens, UniProt P06241)
Sequence of Tyrosine-protein kinase Fyn (P06241 whole entry): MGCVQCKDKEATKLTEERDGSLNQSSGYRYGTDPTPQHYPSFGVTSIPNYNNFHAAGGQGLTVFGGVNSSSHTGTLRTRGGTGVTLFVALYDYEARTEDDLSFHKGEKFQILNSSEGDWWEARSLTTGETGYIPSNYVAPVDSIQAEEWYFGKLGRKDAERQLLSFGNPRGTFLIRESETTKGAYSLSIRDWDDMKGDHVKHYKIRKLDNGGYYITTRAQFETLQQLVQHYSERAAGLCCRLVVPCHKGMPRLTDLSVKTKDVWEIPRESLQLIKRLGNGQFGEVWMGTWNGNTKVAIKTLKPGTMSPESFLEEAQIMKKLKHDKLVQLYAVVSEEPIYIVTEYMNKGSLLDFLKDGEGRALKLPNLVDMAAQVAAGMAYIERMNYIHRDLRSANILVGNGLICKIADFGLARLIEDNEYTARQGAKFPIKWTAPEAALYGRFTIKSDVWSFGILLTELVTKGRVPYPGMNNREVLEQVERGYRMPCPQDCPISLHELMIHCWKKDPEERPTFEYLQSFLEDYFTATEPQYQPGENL

Sequence of Receptor-interacting serine/threonine-protein kinase 2 (O43353 whole entry): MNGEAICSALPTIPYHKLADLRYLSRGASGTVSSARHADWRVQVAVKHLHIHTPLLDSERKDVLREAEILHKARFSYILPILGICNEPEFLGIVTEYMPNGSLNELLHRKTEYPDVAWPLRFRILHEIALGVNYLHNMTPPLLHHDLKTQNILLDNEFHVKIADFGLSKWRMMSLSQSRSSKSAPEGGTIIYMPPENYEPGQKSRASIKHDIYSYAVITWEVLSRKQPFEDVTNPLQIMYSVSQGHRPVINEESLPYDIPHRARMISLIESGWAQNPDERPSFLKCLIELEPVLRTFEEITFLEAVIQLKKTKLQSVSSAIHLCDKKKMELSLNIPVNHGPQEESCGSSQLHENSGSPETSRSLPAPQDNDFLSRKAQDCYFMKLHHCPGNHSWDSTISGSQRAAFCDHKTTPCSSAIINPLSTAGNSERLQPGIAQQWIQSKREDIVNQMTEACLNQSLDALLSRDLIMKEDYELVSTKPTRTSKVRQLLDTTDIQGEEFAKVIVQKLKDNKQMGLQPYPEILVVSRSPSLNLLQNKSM
Sequence of Mitogen-activated protein kinase 10 (P53779 whole entry): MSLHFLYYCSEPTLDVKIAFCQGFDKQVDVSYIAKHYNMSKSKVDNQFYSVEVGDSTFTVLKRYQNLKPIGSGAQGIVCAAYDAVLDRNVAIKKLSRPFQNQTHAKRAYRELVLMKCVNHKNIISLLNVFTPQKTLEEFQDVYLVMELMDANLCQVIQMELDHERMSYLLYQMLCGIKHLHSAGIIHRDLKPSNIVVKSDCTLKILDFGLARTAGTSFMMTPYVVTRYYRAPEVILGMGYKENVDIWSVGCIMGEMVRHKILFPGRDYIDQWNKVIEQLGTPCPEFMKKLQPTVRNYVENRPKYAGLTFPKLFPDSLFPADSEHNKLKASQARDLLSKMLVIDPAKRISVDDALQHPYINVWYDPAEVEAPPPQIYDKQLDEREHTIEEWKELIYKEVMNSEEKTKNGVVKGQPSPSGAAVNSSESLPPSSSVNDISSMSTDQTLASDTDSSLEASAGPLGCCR
Sequence of Mitogen-activated protein kinase 8 (P45983 whole entry): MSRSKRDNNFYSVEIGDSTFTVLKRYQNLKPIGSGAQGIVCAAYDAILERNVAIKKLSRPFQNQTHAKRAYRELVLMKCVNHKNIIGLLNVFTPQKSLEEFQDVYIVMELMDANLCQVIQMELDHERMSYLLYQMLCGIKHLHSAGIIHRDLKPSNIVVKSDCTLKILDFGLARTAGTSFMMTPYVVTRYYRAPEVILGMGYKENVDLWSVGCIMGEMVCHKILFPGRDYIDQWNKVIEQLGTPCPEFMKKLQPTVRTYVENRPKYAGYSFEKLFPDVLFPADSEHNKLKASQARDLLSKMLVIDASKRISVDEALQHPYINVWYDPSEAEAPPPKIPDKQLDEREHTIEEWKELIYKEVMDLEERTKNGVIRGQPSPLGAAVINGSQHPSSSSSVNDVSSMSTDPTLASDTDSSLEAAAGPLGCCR
Sequence of DnaJ homolog subfamily A member 1 (P31689 whole entry): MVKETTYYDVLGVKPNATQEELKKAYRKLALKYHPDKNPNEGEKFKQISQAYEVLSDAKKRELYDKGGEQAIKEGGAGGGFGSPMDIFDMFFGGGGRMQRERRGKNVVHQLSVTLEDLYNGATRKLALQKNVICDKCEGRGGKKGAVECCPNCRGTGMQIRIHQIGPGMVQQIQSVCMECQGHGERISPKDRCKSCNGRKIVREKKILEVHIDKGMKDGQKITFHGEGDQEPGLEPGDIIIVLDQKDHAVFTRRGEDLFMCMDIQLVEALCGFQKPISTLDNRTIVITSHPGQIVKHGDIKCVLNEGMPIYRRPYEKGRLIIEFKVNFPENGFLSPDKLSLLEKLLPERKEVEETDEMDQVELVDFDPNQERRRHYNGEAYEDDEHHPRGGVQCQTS

| SMILES | Kd [1] | Kd [2] | Kd [3] | Kd [4] | Kd (ADP/ATP translocase 2) | Kd [5] | Kd [6] | Kd [7] | Kd [8] |
| --- | --- | --- | --- | --- | --- | --- | --- | --- | --- |
| CCc1cnn2c(NCc3ccc[n+]([O-])c3)cc(N3CCCC[C@H]3CCO)nc12 [DINACICLIB] | > 30 µM (inactive) | > 30 µM (inactive) | > 30 µM (inactive) | > 30 µM (inactive) | > 30 µM (inactive) | > 30 µM (inactive) | > 30 µM (inactive) | – | – |
| Cn1ncc(Cl)c1-c1cc(C(=O)N[C@H](CN)Cc2cccc(F)c2)sc1Cl [AFURESERTIB] | > 30 µM (inactive) | > 30 µM (inactive) | > 30 µM (inactive) | > 30 µM (inactive) | > 30 µM (inactive) | > 30 µM (inactive) | > 30 µM (inactive) | > 30 µM (inactive) | > 30 µM (inactive) |
| CC[C@H](Nc1ncnc2[nH]cnc12)c1nc2cccc(F)c2c(=O)n1-c1ccccc1 [IDELALISIB] | > 30 µM (inactive) | > 30 µM (inactive) | > 30 µM (inactive) | > 30 µM (inactive) | > 30 µM (inactive) | > 30 µM (inactive) | > 30 µM (inactive) | > 30 µM (inactive) | > 30 µM (inactive) |
| CC(C)Nc1cc(-c2c[nH]c(C(=O)N[C@H](CO)c3cccc(Cl)c3)c2)c(Cl)cn1 [ULIXERTINIB] | > 30 µM (inactive) | > 30 µM (inactive) | > 30 µM (inactive) | > 30 µM (inactive) | > 30 µM (inactive) | – | > 30 µM (inactive) | > 30 µM (inactive) | > 30 µM (inactive) |
| COc1cc2nccc(Oc3ccc(NC(=O)NC4CC4)c(Cl)c3)c2cc1C(N)=O [LENVATINIB] | 0.011 µM (active) | > 30 µM (inactive) | > 30 µM (inactive) | – | > 30 µM (inactive) | > 30 µM (inactive) | 0.218 µM (active) | – | > 30 µM (inactive) |
| CN1CCN(c2ccc3nc(-c4c(N)c5c(F)cccc5[nH]c4=O)[nH]c3c2)CC1 [DOVITINIB] | – | > 30 µM (inactive) | – | – | > 30 µM (inactive) | – | – | – | – |
| N[C@@H]1CCCN(c2c(/C=C3\SC(=O)NC3=O)cccc2-c2ccccc2)C1 | > 30 µM (inactive) | > 30 µM (inactive) | > 30 µM (inactive) | > 30 µM (inactive) | > 30 µM (inactive) | – | > 30 µM (inactive) | > 30 µM (inactive) | > 30 µM (inactive) |
| CNC(=O)c1cc(Oc2ccc(NC(=O)Nc3ccc(Cl)c(C(F)(F)F)c3)c(F)c2)ccn1 [REGORAFENIB] | – | > 30 µM (inactive) | > 30 µM (inactive) | > 30 µM (inactive) | > 30 µM (inactive) | > 30 µM (inactive) | 0.421 µM (active) | > 30 µM (inactive) | > 30 µM (inactive) |
| O=C(Nc1cccc(Cl)c1)Nc1ncc(CCNc2ncnc3ccsc23)s1 [SNS-314] | > 30 µM (inactive) | > 30 µM (inactive) | > 30 µM (inactive) | – | > 30 µM (inactive) | > 30 µM (inactive) | 0.423 µM (active) | – | – |
| COc1cc2nccc(Oc3ccc(NC(=O)Nc4cc(C)on4)c(Cl)c3)c2cc1OC [TIVOZANIB] | – | > 30 µM (inactive) | > 30 µM (inactive) | > 30 µM (inactive) | > 30 µM (inactive) | > 30 µM (inactive) | 0.592 µM (active) | > 30 µM (inactive) | > 30 µM (inactive) |
| C[C@@H](c1ccc2nccn2c1)n1nnc2ncc(-c3cnn(C)c3)nc21 [SAVOLITINIB] | > 30 µM (inactive) | > 30 µM (inactive) | > 30 µM (inactive) | > 30 µM (inactive) | > 30 µM (inactive) | – | > 30 µM (inactive) | > 30 µM (inactive) | > 30 µM (inactive) |
| Cc1cn(-c2cc(NC(=O)c3ccc(C)c(Nc4nccc(-c5cccnc5)n4)c3)cc(C(F)(F)F)c2)cn1 [NILOTINIB] | – | > 30 µM (inactive) | – | – | > 30 µM (inactive) | – | – | – | – |
| Nc1nc(N)c2nc(-c3cccc(O)c3)c(-c3cccc(O)c3)nc2n1 [TG100-115] | – | > 30 µM (inactive) | – | – | > 30 µM (inactive) | – | – | – | – |
| CN1CCC(COc2cnc(-c3cccc(Cn4nc(-c5cccc(C#N)c5)ccc4=O)c3)nc2)CC1 [TEPOTINIB] | > 30 µM (inactive) | > 30 µM (inactive) | > 30 µM (inactive) | > 30 µM (inactive) | > 30 µM (inactive) | > 30 µM (inactive) | > 30 µM (inactive) | – | > 30 µM (inactive) |
| COC(=O)[C@@]1(O)C[C@H]2O[C@]1(C)n1c3ccccc3c3c4c(c5c6ccccc6n2c5c31)C(=O)NC4 [K-252A] | – | > 30 µM (inactive) | > 30 µM (inactive) | > 30 µM (inactive) | > 30 µM (inactive) | 0.028 µM (active) | > 30 µM (inactive) | – | > 30 µM (inactive) |
| CCS(=O)(=O)N1CC(CC#N)(n2cc(-c3ncnc4[nH]ccc34)cn2)C1 [BARICITINIB] | > 30 µM (inactive) | > 30 µM (inactive) | > 30 µM (inactive) | > 30 µM (inactive) | > 30 µM (inactive) | – | > 30 µM (inactive) | > 30 µM (inactive) | > 30 µM (inactive) |

Continued, values first:

| Kd [1] | Kd [2] | Kd [3] | Kd [4] | Kd (ADP/ATP translocase 2) | Kd [5] | Kd [6] | Kd [7] | Kd [8] | SMILES |
| --- | --- | --- | --- | --- | --- | --- | --- | --- | --- |
| > 30 µM (inactive) | > 30 µM (inactive) | > 30 µM (inactive) | > 30 µM (inactive) | > 30 µM (inactive) | > 30 µM (inactive) | > 30 µM (inactive) | – | – | OCCn1cc(-c2cnc3nnn(Cc4ccc5ncccc5c4)c3n2)cn1 [PF-04217903] |
| > 30 µM (inactive) | > 30 µM (inactive) | > 30 µM (inactive) | > 30 µM (inactive) | > 30 µM (inactive) | > 30 µM (inactive) | 3.42 µM (active) | – | – | Cc1cc(Nc2cc(N3CCN(C)CC3)nc(/C=C/c3ccccc3)n2)n[nH]1 [ENMD-2076] |
| – | > 30 µM (inactive) | – | – | > 30 µM (inactive) | – | – | – | – | CCn1c(-c2nonc2N)nc2c(C#CC(C)(C)O)ncc(OC[C@H]3CCCNC3)c21 [GSK-690693] |
| – | > 30 µM (inactive) | 0.83 µM (active) | 0.147 µM (active) | > 30 µM (inactive) | > 30 µM (inactive) | > 30 µM (inactive) | – | – | Cc1nc(N)sc1-c1ccnc(Nc2ccc(N3CCOCC3)cc2)n1 [CYC-116] |
